Series [1] deals with paclitaxel-induced peripheral neuropathy. Particulars: male and female rats, similar efficacy; cited from earlier work.
Another series in a line: in vivo. The following applies: both sexes, beagle, dog, po, 500 mg/kg. The source says: Examined parameters to assess toxicity included clinical observations, mortality and moribundity cheques, body weights, food consumption, electrocardiogram, TK, clinical chemistry, haematology, coagulation, urinalysis, gross pathology, organ weights, and histopathology.
In series [2] the target is T1, CCK2 [cholecystokinin B receptor] (Homo sapiens, UniProt P32239).
T1 sequence (P32239 1-447): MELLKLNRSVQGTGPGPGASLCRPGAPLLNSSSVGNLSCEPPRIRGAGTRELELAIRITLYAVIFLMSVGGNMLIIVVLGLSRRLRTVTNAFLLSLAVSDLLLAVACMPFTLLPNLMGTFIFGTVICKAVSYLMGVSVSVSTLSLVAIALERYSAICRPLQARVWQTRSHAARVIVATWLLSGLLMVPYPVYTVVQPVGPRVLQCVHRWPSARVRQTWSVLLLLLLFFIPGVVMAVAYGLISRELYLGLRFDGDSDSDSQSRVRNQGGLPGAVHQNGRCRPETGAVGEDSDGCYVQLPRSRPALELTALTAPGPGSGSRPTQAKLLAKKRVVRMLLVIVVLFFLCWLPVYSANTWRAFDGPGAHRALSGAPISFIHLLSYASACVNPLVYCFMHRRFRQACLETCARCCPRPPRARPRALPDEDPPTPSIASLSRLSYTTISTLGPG
As to the kind of experiment: Secondary pharmacology panel (87 targets). In kind it is binding. The following applies: test concentration 30 µM. The source says:
(§1) Findings were considered significant if ≥50% inhibition of ligand binding or ≥50% stimulation/inhibition were shown in biochemical assays. Those receptors with values ≥50% were further evaluated for binding and functional half-maximal inhibitory concentrations (IC50).

Series [3] deals with δ [DOP; delta opioid receptor] (Homo sapiens, UniProt P41143). As to the kind of experiment: Secondary pharmacology panel (87 targets). It is filed as binding. Particulars: test concentration 30 µM.
Excerpt: as §1

The target in a further series is T2, cathepsin G (Homo sapiens, UniProt P08311).
T2 sequence (P08311 21-255): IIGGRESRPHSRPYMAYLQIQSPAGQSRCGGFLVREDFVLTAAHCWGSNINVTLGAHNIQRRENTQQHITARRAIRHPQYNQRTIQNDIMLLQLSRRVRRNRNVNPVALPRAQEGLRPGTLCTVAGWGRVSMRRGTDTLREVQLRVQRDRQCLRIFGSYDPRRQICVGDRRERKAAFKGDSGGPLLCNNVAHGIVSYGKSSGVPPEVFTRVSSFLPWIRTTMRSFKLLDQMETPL
As to the kind of experiment: Secondary pharmacology panel (87 targets). It is filed as binding. The following applies: test concentration 30 µM.
Excerpt: as §1

Series [4] deals with T3, CCK1 [cholecystokinin A receptor] (Homo sapiens, UniProt P32238).
T3 sequence (P32238 1-428): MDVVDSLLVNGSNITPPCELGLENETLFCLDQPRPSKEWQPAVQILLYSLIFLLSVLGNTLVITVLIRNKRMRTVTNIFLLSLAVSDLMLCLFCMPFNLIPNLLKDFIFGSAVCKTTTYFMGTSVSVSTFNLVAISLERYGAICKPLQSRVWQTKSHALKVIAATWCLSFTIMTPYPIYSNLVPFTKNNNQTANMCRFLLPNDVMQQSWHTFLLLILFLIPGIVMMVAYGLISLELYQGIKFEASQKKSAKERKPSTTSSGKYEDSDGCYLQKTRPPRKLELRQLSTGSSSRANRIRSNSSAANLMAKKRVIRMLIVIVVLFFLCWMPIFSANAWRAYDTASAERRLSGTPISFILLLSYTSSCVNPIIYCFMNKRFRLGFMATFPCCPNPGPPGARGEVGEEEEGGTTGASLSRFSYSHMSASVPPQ
Nature of the series: Secondary pharmacology panel (87 targets). It is filed as binding. The following applies: test concentration 30 µM.
Excerpt: as §1

In series [5] the test system is oxaliplatin-induced thermal hyperalgesia. As to the kind of experiment: 7-day treatment of established OIPN, cold plate latency. It is filed as in vivo, male Sprague Dawley rats. The following applies: 7 days dosing, vehicle close to HBL by Day 14. As to the method:
Male Sprague Dawley rats (150–210 g) were housed in groups of 4 in intra-ventilated Perspex home cages. Humidity, temperature (21 ± 1 °C), and lighting (light-dark cycle of 12:12 hours) were controlled and maintained in the home cages, with food and water available ad libitum. Rats acclimatised to the home cages for at least 1 week. All experiments were carried out according to the Animals (Scientific Procedures) Act, 1986 (U.K. Government Home Office). The study was performed under the Home Office project licence number PP0847012. OIPN was established with a single dose of OXA (10 mg/kg, IP). […] Body weight was monitored throughout the study, and terminal plasma and whole brain samples were taken for bioanalysis. Thermal hyperalgesia was assessed using a cold plate (Bioseb, France) set at a fixed temperature of 15 °C. Latency to the first escape behaviour from the plate was measured indicating discomfort to the thermal stimulation. Escape behaviours typically consist of paw licking, jumping, or withdrawal. The maximal threshold of latency was set at 150 seconds. To acquire baseline readings, pain behaviour was assessed on 3 consecutive days (Days −3, −2, −1). The mean of Day −2 and Day −1 was considered the healthy baseline (HBL) prior to OIPN induction. […] NPB expressed as a percentage change from HBL was calculated as follows (HBL-NPB)/HBL*100. […]

For series [6], the system named is painful diabetic neuropathy. The following applies: cited from earlier work.

Chain of δ [DOP; delta opioid receptor] (P41143 whole entry): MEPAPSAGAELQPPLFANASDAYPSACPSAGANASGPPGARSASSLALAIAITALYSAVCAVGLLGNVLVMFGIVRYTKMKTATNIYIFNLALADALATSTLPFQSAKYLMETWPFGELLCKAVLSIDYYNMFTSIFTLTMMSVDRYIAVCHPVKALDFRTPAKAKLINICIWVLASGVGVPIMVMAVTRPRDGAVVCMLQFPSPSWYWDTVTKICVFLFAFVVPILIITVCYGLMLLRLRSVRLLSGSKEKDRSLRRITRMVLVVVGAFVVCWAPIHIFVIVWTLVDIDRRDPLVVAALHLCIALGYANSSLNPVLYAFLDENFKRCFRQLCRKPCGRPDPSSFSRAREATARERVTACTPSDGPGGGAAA

In the case of `COc1ccccc1[C@@H]1[C@H](C(=O)O)[C@@H](c2ccccc2OC)[C@H]1C(=O)OC1Cc2ccccc2C1` [ART26.12, (+)–3-Indan-2-yloxycarbonyl-2,4-bis(2-methoxyphenyl)cyclobutanecarboxylic acid], in series [1], the “effect on paclitaxel-induced peripheral neuropathy” value was “prevents paclitaxel-induced peripheral neuropathy”. Further, in the series “in vivo”, the no observed adverse effect level (NOAEL) – broadly, the highest dose or exposure tested at which no adverse effect was seen – at 14 days came out at 1000 mg/kg/day. Moreover, the “binding to CCK2 in secondary pharmacology screening” value in series [2] is on record as “greater than 50%”. For the same molecule, the “binding to δ (DOP) in secondary pharmacology screening” value in series [3] is “greater than 50%”. Further, the “binding to cathepsin G in secondary pharmacology screening” value on cathepsin G is recorded as “greater than 50%”. Further, the “binding to CCK1 in secondary pharmacology screening” value in series [4] was “greater than 50%”. Further, the cold plate latency entry in series [5] is reported as “no effect on cold plate latency”. The “effect on established painful diabetic neuropathy” value in series [6] is recorded as “treats established painful diabetic neuropathy”.

The values are drawn from paper PMC12993615 (The journal of pain, 2024).
